Values belong to the compound of their own block, whether it stands above or below them.
What was measured:
BALB/c mice [1] = assay: Murine 5-FU chemoprotection model; format: in vivo; details: 5-FU 150 mg/kg intraperitoneally
Protocol: A dose regimen was established to determine whether FRIL protects mice from death resulting from hematopoietic toxicity of […]. […] This finding was consistent with the understanding that stem cells reside in the bone marrow in predominantly a quiescent state. Bone marrow cellularity in these mice was restored after 2 weeks by the recruitment of the dormant progenitors and responsive stem cells that escaped toxicity of 5-FU. Administration of a second dose of 5-FU (also at 150 mg/kg) 3-7 days after the initial dose killed those stem cells and progenitors recruited into S-phase in response to the first treatment of 5-FU (Lerner and Harrison, supra).
In this study described below, the pretreatment dose regimen for Dl-FRIL described above (5 mg/kg x 4 days) was selected based on the requirement of treating animals with cytokines for several days prior to starting chemotherapy and because Dl-FRIL-treated mice easily tolerated doses (5 mg/kg) that were 10- to 100-fold greater than that used for cytokines. […]

BALB/c mice [2] = details: single dose of 5-FU (150 mg/kg); Lerner and Harrison; cited from earlier work
Dl-FRIL = target: T1, Dl-FRIL (Lablab purpureus, UniProt Q9ZTA9); details: Mo et al., Glycobiology 9:173-179, 1999; cited from earlier work
T1 sequence (Q9ZTA9 9-124 limits assumed): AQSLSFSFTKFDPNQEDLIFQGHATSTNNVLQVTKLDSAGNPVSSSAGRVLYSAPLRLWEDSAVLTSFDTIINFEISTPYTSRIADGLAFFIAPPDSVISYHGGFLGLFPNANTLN
T1 sequence (Q9ZTA9 125-272 limits assumed): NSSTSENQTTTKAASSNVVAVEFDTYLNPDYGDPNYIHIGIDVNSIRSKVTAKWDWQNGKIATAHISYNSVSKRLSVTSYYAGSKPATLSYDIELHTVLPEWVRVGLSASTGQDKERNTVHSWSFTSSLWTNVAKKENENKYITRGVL

[3] = target: FLT3 receptor on FLT3-transfected 3T3 cells (murine FLT3 extracellular portion/human Fms chimera or full length human receptor, not told apart at that place); assay: cell-based or functional assay

Compound: O=c1[nH]cc(F)c(=O)[nH]1 [5-FU, 5-fluorouracil]
deaths after a single dose (BALB/c mice [1]): No mice died
reduction of bone marrow cellularity (BALB/c mice [2]): > 90%

Compound: OC[C@H]1O[C@H](O[C@H]2O[C@H](CO)[C@@H](O)[C@H](O)[C@H]2O)[C@H](O)[C@@H](O)[C@@H]1O [α,α-trehalose]
greater potency than mannose (Dl-FRIL): 3.6 fold

Specific Activity (u/mg) in the Flt3 3T3 assay, Superdex 75 fraction (Pv-FRIL purified to near homogeneity from PHA-LCM) [3]: 244000 u/mg
Compound: Pv-FRIL, mannose-binding lectin isolated from red kidney bean (Phaseolus vulgaris) extract, or purified from PHA-LCM

Reference: EP1246919B1, “PROGENITOR CELL PR[…] AND RELATED METHODS AND PRODUCTS” (ImClone Systems Incorporated, priority 1999, dated 2001)
